Key:
αKGDH [1] = assay: αKGDH protection against SIN-1 nitrative stress in isolated mitochondria in vitro; type: biochemical, rat; conditions: 400 μM SIN-1, one hour
Protocol: FIG. 3 is a graph showing rat brain mitochondria exposed to 0.4 mM SIN-1 for 1 H after addition of tocopherol. (•)α-tocopherol; (▪)γ-tocopherol. The scale bars labeled [α]norm and [Y]norm indicate the normal endogenous quantities of α-tocopherol and γ-tocopherol, respectively, in human brain.
αKGDH is a rate-limiting enzyme of mitochondrial energy production which is diminished in conditions of vascular ischemia (53-58); augmentation of the enzyme with α-ketoglutarate has been found beneficial and α-ketoglutarate is now included as a component in cardioplegia fluid to improve recovery after heart surgery (59). We undertook to determine whether γT protects αKGDH against nitrative stress in vitro. Mitochondria were isolated from adult rat brain then sonicated briefly in the presence of either αT or γT, or an ethanol vehicle. Mitochondria were then exposed to SIN-1, which generates NO and superoxide simultaneously at a known rate (7). Combination of NO and superoxide yields ONOO^−. in situ (discussed above).

αKGDH [2] = assay: heart αKGDH activity after tocopherol supplementation, with or without LPS challenge; type: in vivo, rat; conditions: animals not subjected to LPS stress; 15 mg tocopherol I.P. over 30 days
Protocol: Rats were injected with 15 mg of tocopherol over the first 1 month of life; specific groups were then challenged with a septic dose of LPS and heart αKGDH activity was assayed 24 H later. *p<0.1 relative to vehicle; †p<0.05 relative to vehicle. N=5/group.
Rat pups were injected intraperitoneally (I.P.) with αT or γT in an olive oil vehicle every other day for 30 days beginning 2 days after birth; control animals received vehicle only. […] A total of 15 mg tocopherol was delivered to each animal over the 30 day period; animal weight at the end of the period was approximately 90 g for all three groups. One half of each animal group was injected with a septic dose of LPS (2.5 mg/kg, I.P). After 24 H, animals were killed and organs collected. αKGDH was assayed in heart tissue and tocopherols were measured by HPLC-ECD/PDA.

[3] = rat, in vivo
Protocol: Rat pups were injected intraperitoneally (I.P.) with αT or γT in an olive oil vehicle every other day for 30 days beginning 2 days after birth; control animals received vehicle only. Olive oil was chosen as a vehicle because of the low tocopherol content in this particular vegetable oil. […] One half of each animal group was injected with a septic dose of LPS (2.5 mg/kg, I.P). After 24 H, animals were killed and organs collected. αKGDH was assayed in heart tissue and tocopherols were measured by HPLC-ECD/PDA.

[4] = plasma concentrations of tocopherols and 5-NO2-γ-tocopherol in volunteers; type: in vivo, human; conditions: mean ± SEM
From the text: Smoking is recognized as a major contributing factor to heart disease and γ-T reportedly decreases more than α-T in smokers. Hypertension is also a strong risk factor for heart disease. […] Seven subjects indicated a chronic hypertensive condition. As outlined in Table I, γ-tocopherol tended to decrease in hypertensive subjects while nitration products tended to increase in both smokers and hypertensive subjects. This was the trend regardless of whether the tocopherol concentrations were normalized to plasma triglycerides (Table I).

platelets [5] = assay: platelet aggregation in vitro (PRP, aggregometer); type: cell-based, human; conditions: 500 μM α-tocopherol or 50 μM γ-tocopherol, 1 H preincubation
Protocol: […] inhibits platelet aggregation in vitro and in vivo, apparently through antagonism of protein kinase C (PKC) (60-63). Concentrations of αT necessary to inhibit aggregation in vitro are on the order of 500 μM (60-63), or approximately 10-fold higher than achieved in vivo. The concentration difference between in vitro and in vivo efficacy has been rationalized on the basis of incomplete tocopherol incorporation into membranes during in vitro incubation (63). Nonetheless, subjects supplemented with oral αT have diminished platelet aggregation (63). We therefore sought to investigate the ability of γ-tocopherol to inhibit platelet aggregation. PRP was obtained from two volunteers. Platelets were stimulated to aggregate with ADP, thrombin receptor activating peptide (TRAP) or the PKC agonist phorbol myristyl acetate (PMA) and aggregation was measured using a 4-channel clinical aggregometer. Specific platelet samples were preincubated with vehicle, αT, γT or 5-NO2-γ-tocopherol for 1 H prior to stimulation. Tocopherol concentrations were set at 10-fold excess to average PRP levels based on the precedent of previous in vitro aggregation experiments that used αT as an inhibitor (60-63).

[6] = system: ECV304 human endothelial cells; conditions: 10 μM α-T, 10 μM γ-T or 5 μM of each; 19 hours preincubation; 5 mM SIN-1; 24 hours
Protocol: Cultured ECV304 human endothelial cells were exposed to SIN-1 in the presence of 10 μM α-T, 10 μM γ-T or 5 μM of each (FIG. 5). Tocopherols were incubated with the cells for 19 hours prior to addition of SIN-1. Viability was assayed 24 hours later using a standard tetrazolium (MTT) reduction assay.

platelets [7] = conditions: cited from earlier work
[8] = 100 mg/kg/day for 10 days; 29% FeCl3 patch; cited from earlier work
[9] = own supplementation, 100 mg/kg/day, 10 days; cited from earlier work
[10] = associated with a 40% increase in plasma αT; cited from earlier work
[11] = upper vs lowest quintile of αT consumption, 87,425 nurses, 8 years; cited from earlier work
[12] = median intake 419 vs. 6.4 IU/day, 39,910 men; cited from earlier work
[13] = 35,000 postmenopausal women, 7 years; supplements alone or with dietary intake; cited from earlier work
[14] = 400-800 IU/day, 18 months, cited from earlier work
[15] = 50 mg/kg supplement, 5.3 years follow-up; cited from earlier work
[16] = cited from earlier work
[17] = 400 IU/day natural αT, 4.5 years, 9541 subjects; cited from earlier work
[18] = chronic αT supplementation; cited from earlier work

## Cc1c(C)c2c(c(C)c1O)CC[C@@](C)(CCC[C@H](C)CCC[C@H](C)CCCC(C)C)O2 [α-tocopherol, reference compound]
αKGDH [1]
  concentration offering as much αKGDH protection as 50-100 nM γT: 1 to 10 µM
αKGDH [1]; rat brain mitochondria
  tocopherol concentration of maximal αKGDH protection: 1 µM
αKGDH [2]
  increase of mean heart αKGDH activity: 40%
[3]
  heart tissue tocopherol concentration, controls: 23±12 ng/mg protein
[4]; hypertensives, N = 7
  plasma concentration: 23.1 ± 12.2 μg/mL plasma
  plasma concentration normalized to triglyceride: 21.9 ± 5.9 μg/mg triglyceride
[4]; population, N = 54
  plasma concentration: 18.3 ± 2.6 μg/mL plasma
  plasma concentration normalized to triglyceride: 34.2 ± 14.2 μg/mg triglyceride
[4]; smokers, N = 7
  plasma concentration: 24.9 ± 9.2 μg/mL plasma
  plasma concentration normalized to triglyceride: 21.5 ± 4.5 μg/mg triglyceride
Platelets [5]; ADP 20 μM, Subject 1
  Platelet Aggregation (% maximum): 85 % maximum
Platelets [5]; ADP 20 μM, Subject 2
  Platelet Aggregation (% maximum): 72 % maximum
Platelets [5]; PMA 200 nM, Subject 1
  Platelet Aggregation (% maximum): 74 % maximum
Platelets [5]; PMA 200 nM, Subject 2
  Platelet Aggregation (% maximum): 34 % maximum
Platelets [5]; TRAP 20 μM, Subject 1
  Platelet Aggregation (% maximum): 44 % maximum
Platelets [5]; TRAP 20 μM, Subject 2
  Platelet Aggregation (% maximum): 75 % maximum
[6]
  effect on SIN-1 toxicity (MTT viability): no apparent effect
Platelets [7]
  concentration necessary to inhibit aggregation in vitro: ~500 µM
[8]
  delay/increase of time to occlusive thrombus: 25%
[9]
  increase of plasma level above baseline: 2 fold
[10]
  lower mortality rate (ischemic heart disease): 84%
[11]
  diminished risk of coronary disease: 34%
[12]
  diminished risk of CAD: 39%
[13]
  benefit of supplements on cardiovascular death: no benefit
[14]; 2002 male smokers with CAD
  reduction in nonfatal myocardial infarction: 77%
[14]
  increase in all-cause mortality: 29%
[15]
  effect on MI or mortality: no effect
[16]; 50 IU/day supplementation
  increase of plasma αT: 50%
[16]; 50 IU/day, 5-8 years
  effect on death from hemorrhagic stroke: increases death from hemorrhagic stroke
  effect on total mortality of smokers: does not decrease total mortality
[17]
  effect on primary or secondary cardiovascular outcomes or death: no effect
[18]
  increase of plasma levels of αT: 300-400%
